Data: US20240349723A1 (priority 2023, published 2024)
“Also recorded” adds a separate entry of the source. Read-outs that look alike come from different tables or passages of the source. Where a SMILES comes first, the peptide text is derived from it. Where no end group is shown, it is not given here.

Columns and labels:
[1] = tested on: Liberibacter crescens strain BT-1
CLas = type: in vivo, Candidatus Liberibacter asiaticus
Diaphorina citri = type: in vivo; details: for Nymph mortality of D. citri: dead psyllids counted daily, 21 days, FIG. 9; for live adult psyllids collected from the ten leaves: after 21 day assay, 10 nymphs per excised leaf, peptides 1 mg/mL, PMB 0.5 mg/mL
[2] = tested on: 'Candidatus Liberibacter asiaticus' (CLas); type: in vivo; details: excised CLas-infected citrus leaves, 1 mg/ml, seven-day incubation, FIG. 5
[3] = adults developed on treated CLas-infected leaves, 21 days, FIG. 7

CC[C@H](C)[C@H](NC(=O)[C@H](CC(N)=O)NC(=O)[C@@H](NC(=O)CNC(=O)[C@H](CCCNC(=N)N)NC(=O)[C@H](Cc1ccccc1)NC(=O)[C@H](CCC(N)=O)NC(=O)[C@@H]1CCCN1C(=O)[C@H](CS)NC(=O)[C@H](CC(=O)O)NC(=O)[C@H](CCCCN)NC(=O)[C@H](CC(=O)O)NC(=O)[C@H](CCCNC(=N)N)NC(=O)[C@H](CCCCN)NC(=O)[C@H](CS)NC(=O)CNC(=O)[C@@H](N)CCCNC(=N)N)C(C)C)C(=O)N[C@@H](CCCNC(=N)N)C(=O)N[C@@H](CS)C(=O)N[C@@H](CCCNC(=N)N)C(=O)O [compound 9] (H-RGCKRDKDCPQFRGVNIRCR-OH; N-terminus and C-terminus assumed)
Percent growth rate inhibition L. crescens ([1]; 0.1 mg/ml): 65.4%

LRFRSVFHIFASVLAVAKKH [compound 6]
Percent growth rate inhibition L. crescens ([1]; L. crescens strain BT-1, BM7 medium, final peptide 1 or 0.1 mg/ml, O.D. 600 nm over seven days): 66.6%

LYCNVGSHMECVKHQCKCIK (listed as Medicago truncatula) [SEQ ID NO: 11]
number of infective Diaphorina citri adults that develop on treated leaves (CLas; leaf delivery, FIG. 7): reduces the number of infective Diaphorina citri adults | Nymph mortality of D. citri (Diaphorina citri): Nymph mortality observed

QNLCVGSPLPLQCLKFICRC (listed as Medicago truncatula) [SEQ ID NO: 14]
number of infective Diaphorina citri adults that develop on treated leaves (CLas; leaf delivery, FIG. 7): reduces the number of infective Diaphorina citri adults | Nymph mortality of D. citri (Diaphorina citri): Nymph mortality observed

RGCKRDKDCPQFRGVNIRCR (listed as Medicago truncatula) [SEQ ID NO: 9]
development of psyllid with more than 100 CLas cells per insect (high titer) (CLas; in vivo): completely blocking the development of psyllid with more than 100 CLas cells; also recorded: No highly infected adults develop | number of infective Diaphorina citri adults that develop on treated leaves (CLas; in vivo): reduces the number of infective Diaphorina citri adults | live adult psyllids collected from the ten leaves (Diaphorina citri): 80

VKCVLPRIARCIKYRCQCRN (listed as Medicago truncatula) [SEQ ID NO: 10]
development of psyllid with more than 100 CLas cells per insect (high titer) (CLas; [3]): completely blocking the development of psyllid with more than 100 CLas cells; also recorded: No highly infected adults develop | number of infective Diaphorina citri adults that develop on treated leaves (CLas; leaf delivery, FIG. 7): reduces the number of infective Diaphorina citri adults | live adult psyllids collected from the ten leaves (Diaphorina citri): 74

YSSCATKEECKCPDNKRPAC (listed as Medicago truncatula) [SEQ ID NO: 8]
adult insects with more than 100 CLas cell equivalents per insect (CLas; count out of adults collected, 21 days, FIG. 7): 2/84 | number of infective Diaphorina citri adults that develop on treated leaves (CLas; leaf delivery, FIG. 7): reduces the number of infective Diaphorina citri adults | live adult psyllids collected from the ten leaves (Diaphorina citri): 84

polymyxin B sulfate [PMB, reference compound]
CLas 16S transcript-to-gene ratio (CLas rRNA : CLas rDNA), CLas activity [2]: greater declines in detectable CLas activity | development of psyllid with more than 100 CLas cells per insect (high titer) (CLas; [3]): prevented the development of high titer psyllid | CLas titer in the excised leaves (CLas; excised leaf acquisition assay, FIG. 6A, differences not statistically significant): reduced CLas titer in the excised leaves | live adult psyllids collected from the ten leaves (Diaphorina citri): 87 | performance in the bacterial growth assays ([1]; positive growth inhibition control, 0.5 mg/ml): excellent performance as an antimicrobial peptide
